Experiments:
Test in all cases: Cell proliferation CellTiterGlo Ex.2
Format in all cases: cell-based
786-O = details: Homo sapiens, 786-0; 786-O (Kidney), 72 h
Summary of the method: (§1)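 Cells were seeded, incubated overnight at 37 °C, then dosed at 10, 3, 1, 0.3, 0.1, 0.03, 0.01 and 0.003 μM for 72 h (5% or 10% CO2). CellTiterGlo luminescence gave percent viability relative to 0.10% DMSO (high) and 10 μM staurosporine (low) controls.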

A2058 = details: Homo sapiens; A2058 (Skin), 72 h
Summary of the method: as §1

Caki-2 = details: Homo sapiens; Caki-2 (Kidney), 72 h
Summary of the method: as §1

DU-145 = details: Homo sapiens; DU-145 (Prostate), 72 h
Summary of the method: as §1

DV90 = details: Homo sapiens, DV-90; DV90 (Lung), 72 h
Summary of the method: as §1

Detroit562 = details: Homo sapiens, Detroit 562; Detroit562 (Head/Neck), 72 h
Summary of the method: as §1

EFO-27 = details: Homo sapiens; EFO-27 (Ovary), 72 h
Summary of the method: as §1

H460 = details: Homo sapiens, NCI-H460; H460 (Lung), 72 h
Summary of the method: as §1

HCC38 = details: Homo sapiens; HCC38 (Breast), 72 h
Summary of the method: as §1

HEC-1-B = details: Homo sapiens; HEC-1-B (Endometrium), 72 h
Summary of the method: as §1

HL-60 = details: Homo sapiens; HL-60 (Blood), 72 h
Summary of the method: as §1

HeLa = details: Homo sapiens; HeLa (Cervix), 72 h
Summary of the method: as §1

HuH7 = details: Homo sapiens, Huh-7; HuH7 (Liver), 72 h
Summary of the method: as §1

K562 = details: Homo sapiens; K562 (Blood), 72 h
Summary of the method: as §1

Kato III = details: Homo sapiens; Kato III (Stomach), 72 h
Summary of the method: as §1

LOU-NH91 = LOU-NH91 (Lung), 72 h
Summary of the method: as §1

M07e = details: M-07e; M07e (Blood), 72 h
Summary of the method: as §1

MDA MB 435 = details: Homo sapiens; MDA MB 435 (Skin), 72 h
Summary of the method: as §1

MV4-11 = details: Homo sapiens; MV4-11 (Blood), 72 h
Summary of the method: as §1

NALM-6 = details: Homo sapiens; NALM-6 (Blood), 72 h
Summary of the method: as §1

NCI-H1048 = details: Homo sapiens; NCI-H1048 (Lung), 72 h
Summary of the method: as §1

NCI-H1437 = details: Homo sapiens; NCI-H1437 (Lung), 72 h
Summary of the method: as §1

NCI-H1573 = details: Homo sapiens; NCI-H1573 (Lung), 72 h
Summary of the method: as §1

NCI-H2009 = details: Homo sapiens; NCI-H2009 (Lung), 72 h
Summary of the method: as §1

NCI-H2286 = details: Homo sapiens; NCI-H2286 (Lung), 72 h
Summary of the method: as §1

OV56 = OV56 (Ovary), 72 h
Summary of the method: as §1

PANC-1 = details: Homo sapiens; PANC-1 (Pancreas), 72 h
Summary of the method: as §1

RKO = details: Homo sapiens; RKO (Colon), 72 h
Summary of the method: as §1

SCH = SCH (Stomach), 72 h
Summary of the method: as §1

SK-N-SH = details: Homo sapiens; SK-N-SH (Brain), 72 h
Summary of the method: as §1

SNU-16 = details: Homo sapiens; SNU-16 (Stomach), 72 h
Summary of the method: as §1

SNU840 = details: SNU-840; SNU840 (Ovary), 72 h
Summary of the method: as §1

T84 = details: Homo sapiens; T84 (Colon), 72 h
Summary of the method: as §1

U2OS = details: Homo sapiens; U2OS (Bone), 72 h
Summary of the method: as §1

With `C#C[C@]1(CO)O[C@@H](n2cnc3c(=O)[nH]c(N)nc32)C[C@@H]1O` [compound 13] the IC50 (786-O) was 5.81 µM, the IC50 (A2058) was > 10 µM and the IC50 (Caki-2) was > 10 µM. It also gave an IC50 (DU-145) of 5.73 µM, an IC50 (DV90) of 1.59 µM and an IC50 (Detroit562) of 4.79 µM. The IC50 (EFO-27) was 9.9 µM, the IC50 (H460) was 5.68 µM and the IC50 (HCC38) was 6.37 µM. The IC50 (HEC-1-B) was > 10 µM, the IC50 (HL-60) was 1.13 µM and the IC50 (HeLa) was 1.3 µM. For the same molecule, the IC50 (HuH7) was 1.24 µM, the IC50 (K562) was > 10 µM and the IC50 (Kato III) was 4.86 µM. For the same molecule, the IC50 (LOU-NH91) was > 10 µM, the IC50 (M07e) was 4.07 µM and the IC50 (MDA MB 435) was > 10 µM. The IC50 (MV4-11) was 0.21 µM, the IC50 (NALM-6) was 0.25 µM and the IC50 (NCI-H1048) was 2.49 µM. The IC50 (NCI-H1437) was > 10 µM, the IC50 (NCI-H1573) was 8.59 µM and the IC50 (NCI-H2009) was 1.23 µM. For the same molecule, the IC50 (NCI-H2286) was 5.69 µM, the IC50 (OV56) was 1.99 µM and the IC50 (PANC-1) was > 10 µM. It also gave an IC50 (RKO) of 4.51 µM, an IC50 (SCH) of 0.29 µM and an IC50 (SK-N-SH) of 6.47 µM. For the same molecule, the IC50 (SNU-16) was 1.95 µM, the IC50 (SNU840) was 4.23 µM and the IC50 (T84) was > 10 µM. For the same molecule, the IC50 (U2OS) was 2.18 µM.
